Results as given in ChEMBL document CHEMBL5634117 (Eur J Med Chem, 2023).

Legend:
SR = test: Growth inhibition of human SR cells assessed as reduction in cell viability measured after 48 hrs by SRB assay; type: functional
K562 = test: Growth inhibition of human K562 cells assessed as reduction in cell viability measured after 48 hrs by SRB assay; type: functional
Malme-3M = test: Growth inhibition of human Malme-3M cells assessed as reduction in cell viability measured after 48 hrs by SRB assay; type: functional
HOP-92 = test: Growth inhibition of human HOP-92 cells assessed as reduction in cell viability measured after 48 hrs by SRB assay; type: functional
SNB-75 = test: Growth inhibition of human SNB-75 cells assessed as reduction in cell viability measured after 48 hrs by SRB assay; type: functional
SNB-19 = test: Growth inhibition of human SNB-19 cells assessed as reduction in cell viability measured after 48 hrs by SRB assay; type: functional
NCI-H522 = test: Growth inhibition of human NCI-H522 cells assessed as reduction in cell viability measured after 48 hrs by SRB assay; type: functional
MDA-MB-435 = test: Growth inhibition of human MDA-MB-435 cells assessed as reduction in cell viability measured after 48 hrs by SRB assay; type: functional
SW-620 = test: Growth inhibition of human SW620 cells assessed as reduction in cell viability measured after 48 hrs by SRB assay; type: functional
CAKI-1 = test: Growth inhibition of human CAKI-1 cells assessed as reduction in cell viability measured after 48 hrs by SRB assay; type: functional
SF-539 = test: Growth inhibition of human SF-539 cells assessed as reduction in cell viability measured after 48 hrs by SRB assay; type: functional
SK-MEL-2 = test: Growth inhibition of human SK-MEL-2 cells assessed as reduction in cell viability measured after 48 hrs by SRB assay; type: functional
MDA-MB-468 = test: Growth inhibition of human MDA-MB-468 cells assessed as reduction in cell viability measured after 48 hrs by SRB assay; type: functional
SF-295 = test: Growth inhibition of human SF-295 cells assessed as reduction in cell viability measured after 48 hrs by SRB assay; type: functional
[1] = molecular target: T1, Mitogen-activated protein kinase 8 (Homo sapiens, UniProt P45983); test: Inhibition of human JNK1 at 10 uM in presence of ATP relative to control
NCI-H322M = test: Growth inhibition of human NCI-H322M cells assessed as reduction in cell viability measured after 48 hrs by SRB assay; type: functional
SK-OV-3 = test: Growth inhibition of human SK-OV-3 cells assessed as reduction in cell viability measured after 48 hrs by SRB assay; type: functional
UACC-257 = test: Growth inhibition of human UACC-257 cells assessed as reduction in cell viability measured after 48 hrs by SRB assay; type: functional
PC-3 = test: Growth inhibition of human PC-3 cells assessed as reduction in cell viability measured after 48 hrs by SRB assay; type: functional
HCC 2998 = test: Growth inhibition of human HCC 2998 cells assessed as reduction in cell viability measured after 48 hrs by SRB assay; type: functional
NCI/ADR-RES = test: Growth inhibition of human NCI/ADR-RES cells assessed as reduction in cell viability measured after 48 hrs by SRB assay; type: functional
CCRF-CEM = test: Growth inhibition of human CCRF-CEM cells assessed as reduction in cell viability measured after 48 hrs by SRB assay; type: functional
NCI-H460 = test: Growth inhibition of human NCI-H460 cells assessed as reduction in cell viability measured after 48 hrs by SRB assay; type: functional
BT-549 = test: Growth inhibition of human BT-549 cells assessed as reduction in cell viability measured after 48 hrs by SRB assay; type: functional
OVCAR-3 = test: Growth inhibition of human OVCAR-3 cells assessed as reduction in cell viability measured after 48 hrs by SRB assay; type: functional
TK-10 = test: Growth inhibition of human TK-10 cells assessed as reduction in cell viability measured after 48 hrs by SRB assay; type: functional
COLO 205 = test: Growth inhibition of human COLO 205 cells assessed as reduction in cell viability measured after 48 hrs by SRB assay; type: functional
Hs-578T = test: Growth inhibition of human Hs-578T cells assessed as reduction in cell viability measured after 48 hrs by SRB assay; type: functional
UACC-62 = test: Growth inhibition of human UACC-62 cells assessed as reduction in cell viability measured after 48 hrs by SRB assay; type: functional
HT-29 = test: Growth inhibition of human HT-29 cells assessed as reduction in cell viability measured after 48 hrs by SRB assay; type: functional
786-0 = test: Growth inhibition of human 786-0 cells assessed as reduction in cell viability measured after 48 hrs by SRB assay; type: functional
KM12 = test: Growth inhibition of human KM12 cells assessed as reduction in cell viability measured after 48 hrs by SRB assay; type: functional
[2] = molecular target: T1, Mitogen-activated protein kinase 8; test: Inhibition of human JNK1 in presence of ATP
SF-268 = test: Growth inhibition of human SF-268 cells assessed as reduction in cell viability measured after 48 hrs by SRB assay; type: functional
NCI-H226 = test: Growth inhibition of human NCI-H226 cells assessed as reduction in cell viability measured after 48 hrs by SRB assay; type: functional
HOP-62 = test: Growth inhibition of human HOP-62 cells assessed as reduction in cell viability measured after 48 hrs by SRB assay; type: functional
MDA-MB-231 = test: Growth inhibition of human MDA-MB-231 cells assessed as reduction in cell viability measured after 48 hrs by SRB assay; type: functional
IGROV-1 = test: Growth inhibition of human IGROV-1 cells assessed as reduction in cell viability measured after 48 hrs by SRB assay; type: functional
T47D = test: Growth inhibition of human T47D cells assessed as reduction in cell viability measured after 48 hrs by SRB assay; type: functional
[3] = molecular target: Mitogen-activated protein kinase 9 (Homo sapiens, UniProt P45984); test: Inhibition of human JNK2 at 10 uM in presence of ATP relative to control
DU-145 = test: Growth inhibition of human DU-145 cells assessed as reduction in cell viability measured after 48 hrs by SRB assay; type: functional
SK-MEL-28 = test: Growth inhibition of human SK-MEL-28 cells assessed as reduction in cell viability measured after 48 hrs by SRB assay; type: functional
SN12C = test: Growth inhibition of human SN12C cells assessed as reduction in cell viability measured after 48 hrs by SRB assay; type: functional
OVCAR-4 = test: Growth inhibition of human OVCAR-4 cells assessed as reduction in cell viability measured after 48 hrs by SRB assay; type: functional
UO-31 = test: Growth inhibition of human UO-31 cells assessed as reduction in cell viability measured after 48 hrs by SRB assay; type: functional
HCT-116 = test: Growth inhibition of human HCT-116 cells assessed as reduction in cell viability measured after 48 hrs by SRB assay; type: functional

T1 sequence (P45983 whole entry): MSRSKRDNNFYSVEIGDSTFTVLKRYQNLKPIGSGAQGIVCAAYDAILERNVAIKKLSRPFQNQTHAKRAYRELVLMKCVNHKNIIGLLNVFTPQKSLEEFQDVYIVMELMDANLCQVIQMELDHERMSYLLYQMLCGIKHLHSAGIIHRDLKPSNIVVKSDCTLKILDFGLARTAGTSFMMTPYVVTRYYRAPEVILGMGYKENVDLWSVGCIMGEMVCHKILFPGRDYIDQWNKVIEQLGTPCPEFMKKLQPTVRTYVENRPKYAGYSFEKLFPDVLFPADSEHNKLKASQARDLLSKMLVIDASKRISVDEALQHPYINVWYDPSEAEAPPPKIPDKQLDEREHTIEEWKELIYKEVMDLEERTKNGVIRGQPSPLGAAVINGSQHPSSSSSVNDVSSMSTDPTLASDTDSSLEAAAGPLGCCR
Sequence of Mitogen-activated protein kinase 9 (P45984 whole entry, looked up): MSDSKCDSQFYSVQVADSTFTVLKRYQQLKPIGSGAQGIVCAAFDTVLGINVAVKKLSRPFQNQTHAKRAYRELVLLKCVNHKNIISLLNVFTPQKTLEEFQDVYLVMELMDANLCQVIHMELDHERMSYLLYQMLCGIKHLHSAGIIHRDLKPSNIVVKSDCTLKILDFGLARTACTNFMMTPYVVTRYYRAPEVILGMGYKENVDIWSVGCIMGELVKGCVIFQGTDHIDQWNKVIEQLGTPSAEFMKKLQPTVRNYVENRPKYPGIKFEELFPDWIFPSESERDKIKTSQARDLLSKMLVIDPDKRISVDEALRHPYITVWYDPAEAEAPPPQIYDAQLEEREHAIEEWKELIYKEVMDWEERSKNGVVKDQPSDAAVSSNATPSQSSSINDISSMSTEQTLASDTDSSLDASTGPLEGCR

CC(C)(C)n1cc(-c2ccnc(NCCCNS(=O)(=O)c3ccc(Br)cc3)c2)c(-c2cccc(O)c2)n1
GI50 (SR): 2000 nM | GI50 (K562): 2020 nM | GI50 (Malme-3M): 1670 nM | GI50 (HOP-92): 1560 nM | GI50 (SNB-75): 1760 nM | GI50 (SNB-19): 2110 nM | GI50 (NCI-H522): 2130 nM | GI50 (MDA-MB-435): 1820 nM | GI50 (SW-620): 1830 nM | GI50 (CAKI-1): 2160 nM | GI50 (SF-539): 1700 nM | GI50 (SK-MEL-2): 2130 nM | GI50 (MDA-MB-468): 2100 nM | GI50 (SF-295): 1710 nM | inhibition [1]: 98.8% | GI50 (NCI-H322M): 2310 nM | GI50 (SK-OV-3): 2520 nM | GI50 (UACC-257): 2010 nM | GI50 (PC-3): 1600 nM | GI50 (HCC 2998): 1920 nM | GI50 (NCI/ADR-RES): 2210 nM | GI50 (CCRF-CEM): 2260 nM | GI50 (NCI-H460): 1990 nM | GI50 (BT-549): 1500 nM | GI50 (OVCAR-3): 2150 nM | GI50 (TK-10): 2510 nM | GI50 (COLO 205): 1850 nM | GI50 (Hs-578T): 2240 nM | GI50 (UACC-62): 1590 nM | GI50 (HT-29): 1420 nM | GI50 (786-0): 1660 nM | GI50 (KM12): 2110 nM | IC50 [2]: 97.8 nM | GI50 (SF-268): 2400 nM | GI50 (NCI-H226): 2310 nM | GI50 (HOP-62): 2050 nM | GI50 (MDA-MB-231): 1740 nM | GI50 (IGROV-1): 1910 nM | GI50 (T47D): 2480 nM | inhibition [3]: 99.3% | GI50 (DU-145): 2100 nM | GI50 (SK-MEL-28): 1790 nM | GI50 (SN12C): 1610 nM | GI50 (OVCAR-4): 1910 nM | GI50 (UO-31): 1660 nM | GI50 (HCT-116): 1310 nM

O=C1c2ccccc2-c2n[nH]c3cccc1c23
GI50 (SR): 13100 nM | GI50 (K562): 48600 nM | GI50 (Malme-3M): 16400 nM | GI50 (HOP-92): 37600 nM | GI50 (SNB-75): 16900 nM | GI50 (SNB-19): 50000 nM | GI50 (NCI-H522): 12200 nM | GI50 (MDA-MB-435): 12800 nM | GI50 (SW-620): 10900 nM | GI50 (CAKI-1): 3560 nM | GI50 (SF-539): 32200 nM | GI50 (SK-MEL-2): 29000 nM | GI50 (SF-295): 22500 nM | GI50 (NCI-H322M): 25000 nM | GI50 (SK-OV-3): 21000 nM | GI50 (UACC-257): 29500 nM | GI50 (PC-3): 23300 nM | GI50 (HCC 2998): 9620 nM | GI50 (NCI/ADR-RES): 22600 nM | GI50 (CCRF-CEM): 16000 nM | GI50 (NCI-H460): 9860 nM | GI50 (BT-549): 30800 nM | GI50 (OVCAR-3): 15300 nM | GI50 (TK-10): 5930 nM | GI50 (COLO 205): 19500 nM | GI50 (Hs-578T): 55100 nM | GI50 (UACC-62): 14600 nM | GI50 (HT-29): 25900 nM | GI50 (786-0): 27100 nM | GI50 (KM12): 2620 nM | GI50 (SF-268): 18400 nM | GI50 (NCI-H226): 22900 nM | GI50 (HOP-62): 69300 nM | GI50 (MDA-MB-231): 65300 nM | GI50 (IGROV-1): 11400 nM | GI50 (T47D): > 100000 nM | GI50 (DU-145): 28200 nM | GI50 (SK-MEL-28): 37500 nM | GI50 (SN12C): 14800 nM | GI50 (OVCAR-4): 31900 nM | GI50 (UO-31): 10500 nM | GI50 (HCT-116): 44600 nM

CC(C)(C)n1cc(-c2ccnc(NCCCNS(=O)(=O)c3cccc4ccccc34)c2)c(-c2cccc(O)c2)n1
GI50 (SR): 1400 nM | GI50 (K562): 1480 nM | GI50 (Malme-3M): 1510 nM | GI50 (HOP-92): 1710 nM | GI50 (SNB-75): 1880 nM | GI50 (SNB-19): 2630 nM | GI50 (NCI-H522): 1990 nM | GI50 (MDA-MB-435): 1760 nM | GI50 (SW-620): 1810 nM | GI50 (CAKI-1): 2490 nM | GI50 (SF-539): 1830 nM | GI50 (SK-MEL-2): 1880 nM | GI50 (MDA-MB-468): 2040 nM | GI50 (SF-295): 1800 nM | inhibition [1]: 100% | GI50 (NCI-H322M): 2660 nM | GI50 (SK-OV-3): 2630 nM | GI50 (UACC-257): 2070 nM | GI50 (PC-3): 1850 nM | GI50 (HCC 2998): 1870 nM | GI50 (NCI/ADR-RES): 1850 nM | GI50 (CCRF-CEM): 2440 nM | GI50 (NCI-H460): 1930 nM | GI50 (BT-549): 1840 nM | GI50 (OVCAR-3): 2060 nM | GI50 (TK-10): 2850 nM | GI50 (COLO 205): 1890 nM | GI50 (Hs-578T): 1890 nM | GI50 (UACC-62): 1670 nM | GI50 (HT-29): 1270 nM | GI50 (786-0): 2090 nM | GI50 (KM12): 2340 nM | IC50 [2]: 80.3 nM | GI50 (SF-268): 2770 nM | GI50 (NCI-H226): 1970 nM | GI50 (HOP-62): 1830 nM | GI50 (MDA-MB-231): 2320 nM | GI50 (IGROV-1): 2140 nM | GI50 (T47D): 2220 nM | inhibition [3]: 99.1% | GI50 (DU-145): 2650 nM | GI50 (SK-MEL-28): 1670 nM | GI50 (SN12C): 1730 nM | GI50 (OVCAR-4): 1920 nM | GI50 (UO-31): 2260 nM | GI50 (HCT-116): 1400 nM
